Data from patent publication US10183944B2 (Asana Biosciences, LLC, priority 2011, dated 2019).

How the values were obtained:
JAK2 = JAK2 (Homo sapiens (Human), UniProt O60674); assay: Inhibition of enzymatic JAK2 kinase activity (TR-FRET); type: biochemical; conditions: read-out: IC50 JAK
Procedure, shortened: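 TR-FRET read-out (Eu antibody donor, Ulight poly Glu-Tyr acceptor, 665/615 nm ratio) after a 60 min RT kinase reaction with ATP, begun following 30 min compound–enzyme preincubation. Stopped by EDTA; inhibition expressed as 100 minus % activity of positive control.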

[1] = target: Syk (356-635 amino acids) catalytic domain (Homo sapiens (Human), UniProt P43405); assay: Inhibition of enzymatic Syk kinase activity (radiometric); type: biochemical; conditions: read-out: IC50 Syk
Procedure, shortened: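 Radiometric filter-binding format: 32P transfer from γ-32P-ATP onto pG4T, scintillation-counted after acid washes of P81 paper. Syk kinase domain (356-635), 0.035–7.5 ng per reaction, was exposed to compound for 30 minutes at room temperature before a 10-minute, 30° C. reaction with ATP (100 μM stock). Inhibition derived from counts with versus without compound.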

JAK2, sequence (O60674 808-1132): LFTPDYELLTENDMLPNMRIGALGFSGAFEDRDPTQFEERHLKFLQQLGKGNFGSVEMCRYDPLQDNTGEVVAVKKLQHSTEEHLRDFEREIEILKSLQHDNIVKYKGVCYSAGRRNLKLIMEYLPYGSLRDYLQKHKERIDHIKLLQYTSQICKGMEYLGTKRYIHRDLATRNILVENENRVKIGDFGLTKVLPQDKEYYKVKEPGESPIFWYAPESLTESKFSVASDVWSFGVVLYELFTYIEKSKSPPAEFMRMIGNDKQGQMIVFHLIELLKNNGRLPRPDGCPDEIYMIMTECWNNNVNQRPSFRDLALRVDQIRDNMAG

Compound | IC50 (JAK2) [nM] | IC50 [1] [nM]
Cl.O=c1[nH]ncc2nc(-c3ccccc3)nc(Nc3ccc(CN4CCNCC4)cc3)c12 [Example 7, 2-phenyl-4-(4-(piperazin-1-ylmethyl)phenylamino)pyrimido[4,5-d]pyridazin-5(6H)-one hydrochloride] | < 50 | < 50
O=C(O)C1CCN(c2ccc(Nc3nc(-c4ccccc4)nc4cn[nH]c(=O)c34)cc2)CC1 [Example 13, 1-(4-(5-oxo-2-phenyl-5,6-dihydropyrimido[4,5-d]pyridazin-4-ylamino)phenyl)piperidine-4-carboxylic acid] | < 10 | < 50
O=C(O)C1CC12CCN(c1ccc(Nc3nc(-c4ccccc4)nc4cn[nH]c(=O)c34)cc1)CC2 (centres unmarked) [Example 19, 6-(4-(5-oxo-2-phenyl-5,6-dihydropyrimido[4,5-d]pyridazin-4-ylamino)phenyl)-6-azaspiro[2.5]octane-1-carboxylic acid] | < 10 | < 50
O=C(O)C1CC12CCN(c1ccc(Nc3nc(N4CCCCCC4)nc4cn[nH]c(=O)c34)cc1)CC2 (centres unmarked) [Example 62, 6-(4-((2-(azepan-1-yl)-5-oxo-5,6-dihydropyrimido[4,5-d]pyridazin-4-yl)amino)phenyl)-6-azaspiro[2.5]octane-1-carboxylic acid] | < 10 | < 10
O=C(O)CC1CCN(c2ccc(Nc3nc(N4CCCCCC4)nc4cn[nH]c(=O)c34)cn2)CC1 [Example 108, 2-(1-(5-((2-(azepan-1-yl)-5-oxo-5,6-dihydropyrimido[4,5-d]pyridazin-4-yl)amino)pyridin-2-yl)piperidin-4-yl) acetic acid] | < 10 | < 10
N#CCC1CCN(c2nc(Nc3ccc(N4CCC(O)CC4)cc3)c3c(=O)[nH]ncc3n2)CC1 [Example 189, 2-(1-(4-((4-(4-hydroxypiperidin-1-yl)phenyl)amino)-5-oxo-5,6-dihydropyrimido[4,5-d]pyridazin-2-yl)piperidin-4-yl)acetonitrile] | < 50 | < 10
N#CCC1CCN(c2nc(Nc3ccc(N4CCN(CCO)CC4)cc3)c3c(=O)[nH]ncc3n2)CC1 [Example 191, 2-(1-(4-((4-(4-(2-hydroxyethyl)piperazin-1-yl)phenyl)amino)-5-oxo-5,6-dihydropyrimido[4,5-d]pyridazin-2-yl)piperidin-4-yl)acetonitrile] | < 10 | < 10
